Source: patent publication US12485169B2, “Compounds” (GREY WOLF THERAPEUTICS LIMITED, priority 2018, dated 2025)

Target: T1, Purified ERAP1 (37-941)-10His (ERAP1) (Homo sapiens, UniProt Q9NZ08)
T1 construct: Purified ERAP1 (37-941)-10His (ERAP1)
Assay: ERAP1 mediated hydrolysis of an amide substrate (10-mer inhibition assay), biochemical system
Details: 10-mer substrate, 23° C., 1 h, excitation 279 nm / emission 355 nm; read-out: IC50 vs Decapeptide WRVYEKC(Dnp)ALK-acid (where Dnp is Dinitrophenyl maleimide) (10-mer)

T1 sequence (Q9NZ08 37-941): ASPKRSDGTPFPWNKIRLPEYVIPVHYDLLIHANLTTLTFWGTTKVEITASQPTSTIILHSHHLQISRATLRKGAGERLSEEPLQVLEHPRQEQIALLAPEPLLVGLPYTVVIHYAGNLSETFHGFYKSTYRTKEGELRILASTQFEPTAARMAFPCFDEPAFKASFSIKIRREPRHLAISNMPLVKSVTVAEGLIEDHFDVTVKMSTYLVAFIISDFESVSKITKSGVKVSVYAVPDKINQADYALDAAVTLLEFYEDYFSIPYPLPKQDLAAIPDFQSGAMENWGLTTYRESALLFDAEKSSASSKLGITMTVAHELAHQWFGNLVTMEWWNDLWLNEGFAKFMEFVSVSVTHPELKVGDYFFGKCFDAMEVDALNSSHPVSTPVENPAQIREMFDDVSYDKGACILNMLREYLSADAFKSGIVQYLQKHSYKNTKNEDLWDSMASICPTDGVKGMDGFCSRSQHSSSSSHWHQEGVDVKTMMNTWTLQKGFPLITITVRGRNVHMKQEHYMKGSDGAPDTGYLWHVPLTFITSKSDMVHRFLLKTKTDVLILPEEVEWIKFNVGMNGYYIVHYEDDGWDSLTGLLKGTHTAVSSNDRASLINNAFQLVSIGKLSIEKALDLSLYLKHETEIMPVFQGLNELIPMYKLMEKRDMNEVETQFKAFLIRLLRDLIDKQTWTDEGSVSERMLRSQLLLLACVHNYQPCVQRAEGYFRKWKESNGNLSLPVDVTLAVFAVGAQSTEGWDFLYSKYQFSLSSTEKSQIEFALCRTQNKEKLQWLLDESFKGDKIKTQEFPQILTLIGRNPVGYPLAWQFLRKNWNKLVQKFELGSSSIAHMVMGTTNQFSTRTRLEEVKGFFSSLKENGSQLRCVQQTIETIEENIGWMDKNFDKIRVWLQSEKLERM

| SMILES | IC50 [µM] |
| --- | --- |
| CCc1ccc(C(=O)O)cc1S(=O)(=O)Nc1cc(S(C)(=O)=O)ccc1N1CCCC(F)(F)C1 [Example 313, 3-(N-(2-(3,3-difluoropiperidin-1-yl)-5-(methylsulfonyl)phenyl)sulfamoyl)-4-ethylbenzoic acid] | < 0.5 |
| O=C(O)c1ccc(C2CC2)c(S(=O)(=O)Nc2cc(C(F)(F)F)ccc2N2CCC[C@@H](O)C2)c1 [Example 314, I-4-cyclopropyl-3-(N-(2-(3-hydroxypiperidin-1-yl)-5-(trifluoromethyl)phenyl)sulfamoyl)benzoic acid] | < 0.5 |
| N#CC1CCN(c2ccc(C(F)(F)F)cc2NS(=O)(=O)c2cc(C(=O)O)ccc2C2CC2)CC1 [Example 315, 3-(N-(2-(4-cyanopiperidin-1-yl)-5-(trifluoromethyl)phenyl)sulfamoyl)-4-cyclopropylbenzoic acid] | < 0.5 |
| N#Cc1ccc(N2CCCC(F)(F)C2)c(NS(=O)(=O)c2cc(C(=O)O)ccc2C2CC2)c1 [Example 316, 3-(N-(5-cyano-2-(3,3-difluoropiperidin-1-yl)phenyl)sulfamoyl)-4-cyclopropylbenzoic acid] | < 0.5 |
| CCc1ccc(C(=O)O)cc1S(=O)(=O)Nc1cc(S(C)(=O)=O)ccc1N1CCC(F)CC1 [Example 317, 4-ethyl-3-(N-(2-(4-fluoropiperidin-1-yl)-5-(methylsulfonyl)phenyl)sulfamoyl)benzoic acid] | < 0.5 |
| CCc1ccc(C(=O)O)cc1S(=O)(=O)Nc1cc(C#N)ccc1N1CCC(F)CC1 [Example 318, 3-(N-(5-cyano-2-(4-fluoropiperidin-1-yl)phenyl)sulfamoyl)-4-ethylbenzoic acid] | < 0.5 |
| CS(=O)(=O)c1ccc(N2CCCC(F)(F)C2)c(NS(=O)(=O)c2cc(C(=O)O)ccc2C2CC2)c1 [Example 319, 4-cyclopropyl-3-(N-(2-(3,3-difluoropiperidin-1-yl)-5-(methylsulfonyl)phenyl)sulfamoyl)benzoic acid] | < 0.5 |
| CS(=O)(=O)c1ccc(N2CCC(F)CC2)c(NS(=O)(=O)c2cc(C(=O)O)ccc2C2CC2)c1 [Example 320, 4-cyclopropyl-3-(N-(2-(4-fluoropiperidin-1-yl)-5-(methylsulfonyl)phenyl)sulfamoyl)benzoic acid] | < 0.5 |
| CS(=O)(=O)c1ccc(N2CCC[C@@H](F)C2)c(NS(=O)(=O)c2cc(C(=O)O)ccc2C2CC2)c1 [Example 321, I-4-cyclopropyl-3-(N-(2-(3-fluoropiperidin-1-yl)-5-(methylsulfonyl)phenyl)sulfamoyl)benzoic acid] | < 0.5 |
| N#Cc1ccc(N2CCC(F)CC2)c(NS(=O)(=O)c2cc(C(=O)O)ccc2C2CC2)c1 [Example 322, 3-(N-(5-cyano-2-(4-fluoropiperidin-1-yl)phenyl)sulfamoyl)-4-cyclopropylbenzoic acid] | < 0.5 |
| O=C(O)c1ccc(C2CC2)c(S(=O)(=O)Nc2cc(-n3cnnn3)ccc2N2CCCCC2)c1 [Example 323, 4-cyclopropyl-3-(N-(2-(piperidin-1-yl)-5-(tetrazol-1-yl)phenyl)sulfamoyl)benzoic acid] | < 0.5 |
| N#Cc1cc(NS(=O)(=O)c2cc(C(=O)O)ccc2C2CC2)c(N2CCCCC2)cc1F [Example 324, 3-(N-(5-cyano-4-fluoro-2-(piperidin-1-yl)phenyl)sulfamoyl)-4-cyclopropylbenzoic acid] | < 0.5 |
| O=C(O)c1ccc(C2CC2)c(S(=O)(=O)Nc2cc(-n3cnnn3)ccc2N2CC(O)C2)c1 [Example 325, 4-cyclopropyl-3-(N-(2-(3-hydroxyazetidin-1-yl)-5-(tetrazol-1-yl)phenyl)sulfamoyl)benzoic acid] | < 0.5 |
| N#Cc1ccc(N2CCC(C#N)CC2)c(NS(=O)(=O)c2cc(C(=O)O)ccc2C2CC2)c1 [Example 326, 3-(N-(5-cyano-2-(4-cyanopiperidin-1-yl)phenyl)sulfamoyl)-4-cyclopropylbenzoic acid] | < 0.5 |
| N#Cc1cc(NS(=O)(=O)c2cc(C(=O)O)ccc2C2CC2)c(N2CCCCC2)cc1Cl [Example 327, 3-(N-(4-chloro-5-cyano-2-(piperidin-1-yl)phenyl)sulfamoyl)-4-cyclopropylbenzoic acid] | < 0.5 |
